{"source": "patent US20150368195A1", "about": "“INDOLINE COMPOUNDS FOR TREATMENT AND/OR PREVENTION OF INFLAMMATION DISEASES” (Taipei Medical University, priority 2014, published 2015)", "key": {"[1]": {"test_system": "nitric oxide (NO)", "assay": "LPS-induced nitric oxide production in RAW 264.7 macrophages", "assay_type": "cell-based, Mouse", "procedure": "Nitrite concentration was determined using a dilution of sodium nitrite as a standard.\nFurthermore, the anti-inflammatory effects of MPT0G009 was evaluated. […] These supernatants were then assayed for PGE2, NO, and IL-6."}, "[2]": {"test_system": "inducible nitric oxide synthase (iNOS)", "assay": "LPS-induced iNOS protein expression, Western blot, RAW264.7", "assay_type": "cell-based, Mouse", "conditions": "RAW264.7, 0.1-10 μM, LPS 25 ng/mL 24 h", "procedure": "Then the cells were harvested and whole cell extracts were prepared for Western blot analysis for iNOS and COX-2. The relative protein expressions are presented as mean±SEM for four replicates. *p<0.05 compared to the LPS-treated group."}, "[3]": {"test_system": "RAW264.7 macrophages", "assay": "M-CSF/RANKL-induced osteoclast formation", "assay_type": "cell-based, Mouse", "conditions": "5 nM MPT0G009 or 50 nM SAHA; M-CSF/RANKL 50 ng/mL, 5 days", "procedure": "Cells were then tartrate resistant acid phosphatase (TRAP) stained, and the numbers of TRAP-positive multinuclear cells were counted. […] Images are at ×100 magnification, and the arrows indicate differentiated osteoclasts. (FIG. 6C) RAW264.7 cells were treated as in (FIG. 6B), then incubated with a fluorescein isothiocyanate (FITC)-conjugated anti-CD51/61 antibody and analyzed by flow cytometry. (FIGS. 6D and 6E) RAW264.7 cells (1×10^5) were transfected with 1 μg of pGL4.32[luc2P/NF-κB-RE/Hygro] (FIG. 6D) or pGL4.30[luc2P/NFAT-RE/Hygro] (FIG. 6E) for 24 h and then incubated for 30 min with or without MPT0G009 (5 nM). Then RANKL (50 ng/mL) was added and incubation was continued for an additional 24 h, after which luciferase activity was determined. Results in (FIGS. 6A, 6D, and 6E) are the means±SEM's for three independent experiments. **p<0.01 compared with the indicated controls.\nBone destruction is one characteristic of RA pathogenesis, resulting in joint dysfunction. Differentiation of mouse macrophages osteoclast-like cells can be induced in the presence of M-CSF and RANKL, which has been used as a model to investigate osteoclast differentiation. […] Subsequently, multinucleate tartrate resistant acid phosphatase (TRAP)-positive cells were counted."}, "[4]": {"test_system": "CTGF", "assay": "pro-fibrogenic mediator-induced CTGF production, Western blot", "assay_type": "cell-based, human", "conditions": "WI-38 lung fibroblasts", "procedure": "Western blot analysis was performed. First, WI-38 lung fibroblasts were incubated with different concentrations of MPT0E028 (0.01, 0.03, 0.1, 0.3, or 1 μM) (FIG. 10A) or MPT0G009 (0.01, 0.03, 0.1, 0.3, or 1 μM) (FIG. 10B) for 30 min before and during incubation for 2 h with TGF-β (10 ng/mL). WI-38 lung fibroblasts were incubated with 1 μM MPT0E028 and MPT0G009 for 30 min and following another incubation for 2 h with 1 U/ml thrombin (FIG. 10C) and 10 nM ET-1 (FIG. 10D). The collagen I production from WI-38 lung fibroblasts stimulated by 10 ng/mL TGF-β for 24 h was inhibited with 1 μM MPT0E028 and MPT0G009 pretreatment (FIG. 10E).\nWI-38 cells, a normal human embryonic lung fibroblast cell line, were obtained from American Type Culture Collection (Manassas, Va.). Cells were grown in MEM nutrient mixture, containing 10% FCS, 2 mM L-glutamine, 0.1 mM NEAA, 1 mM sodium pyruvate, 50 U/ml penicillin G, and 100 μg/ml streptomycin, in a humidified 37° C. incubator with 5% CO2 Cells were used between passages 18 and 30 for all experiments. After reaching confluence, cells were seeded onto 6-cm dishes for immunoblotting.\nWestern blot analyses were performed as described previously (Chen B C, Chang Y S, Kang J C, Hsu M J, Sheu J R, Chen T L, et al. Peptidoglycan induces nuclear factor-kappaB activation and cyclooxygenase-2 expression via Ras, Raf-1, and ERK in RAW 264.7 macrophages. J Biol Chem 2004; 279:20889-97). Briefly, WI-38 lung fibroblasts were cultured in 6-cm dishes. After reaching confluence, cells were pretreated with specific inhibitors (E028 and G009) as indicated for 30 min, and then treated with the vehicle (H2O) or 10 ng/ml TGF-β for 2 h (CTGF assay) or 24 h (collagen I assay). Whole-cell lysates ([…]) were subjected to 12% (CTGF) or 8% (collagen I) SDS-PAGE, and transferred onto a polyvinylidene difluoride membrane which was then incubated in TBST buffer (150 mM NaCl, 20 mM Tris-HCl, and 0.02% Tween 20; pH 7.4) containing 5% BSA. Proteins were visualized by specific primary antibodies and then incubated with HRP-conjugated secondary antibodies. The immunoreactivity was detected using enhanced chemiluminescence (ECL) following the manufacturer's instructions. Quantitative data were obtained using a computing densitometer with scientific imaging systems (Kodak, Rochester, N.Y.).\nTo determine whether the inhibitory effects of MPT0E028 and MPT0G009 on pro-fibrogenic mediators (TGF-β, thrombin, and ET-1) were related to the modulation of CTGF and Collagen I production, Western blot analysis was performed. First, WI-38 lung fibroblasts were incubated with different concentrations of MPT0E028 (0.01, 0.03, 0.1, 0.3, or 1 μM) (FIG. 10A) or MPT0G009 (0.01, 0.03, 0.1, 0.3, or 1 μM) (FIG. 10B) for 30 min before and during incubation for 2 h with TGF-β (10 ng/mL). […] Furthermore, we examined the effects of MPT0E028 and MPT0G009 on other pro-fibrogenic mediators. As shown in FIGS. 10C and 10D, WI-38 lung fibroblasts were incubated with 1 μM MPT0E028 and MPT0G009 for 30 min and following another incubation for 2 h with 1 U/ml thrombin (FIG. 10C) and 10 nM ET-1 (FIG. 10D)."}, "[5]": {"test_system": "HDAC1 and HDAC6", "assay": "overexpression of HDAC1 and HDAC6 in RAW264.7 macrophages or RA-FLS", "quoted_text": "(TRAP) stained, and the numbers of TRAP-positive multinuclear cells were counted (FIG. 7D) or were incubated with a fluorescein isothiocyanate (FITC)-conjugated anti-CD51/61 antibody and analyzed by flow cytometry (FIG. 7E)."}}, "note": "“Also recorded” adds a separate entry of the source."}
{"smiles": "COc1ccc(S(=O)(=O)N2CCc3cc(C=CC(=O)NO)ccc32)cc1", "note": "[Compound 9, 3-[1-(4-methoxybenzenesulfonyl)-2,3-dihydro-1H-indol-5-yl]-N-Hydroxyacrylamide]", "values": [{"measurement": "NO production by RAW264.7 cells", "setting": "[1]; MPT0G009 0.1, 1, 10 μM, SAHA 0.3, 3, 30 μM, LPS 25 ng/mL 24 h", "value": "inhibited"}, {"measurement": "IC50", "setting": "[1]; Mus musculus, RAW264.7, LPS-stimulated RAW 264.7 macrophages, mean ± SEM, three experiments", "value": 1070, "unit": "nM"}, {"measurement": "iNOS protein expression", "setting": "[2]", "value": "concentration-dependently inhibitory effects"}, {"measurement": "iNOS protein expression", "setting": "[2]; listed as compound 9", "value": "significantly inhibited"}, {"measurement": "expression of osteoclast-specific marker CD51/61", "setting": "[3]", "value": "significantly inhibited"}, {"measurement": "formation of M-CSF/RANKL-induced TRAP-positive cells", "setting": "[3]", "value": "significantly inhibited; also recorded: inhibits"}, {"measurement": "ET-1-induced CTGF expression", "setting": "[4]; 1 μM, 10 nM ET-1 2 h", "value": "inhibited"}, {"measurement": "thrombin-induced CTGF expression", "setting": "[4]; 1 μM, 1 U/ml thrombin 2 h", "value": "inhibited"}, {"measurement": "TGF-β-induced CTGF production", "setting": "[4]; 0.01-1 μM, TGF-β 10 ng/mL 2 h", "value": "significantly inhibited"}, {"measurement": "effect of HDAC overexpression on inhibition of M-CSF/RANKL-induced osteoclast differentiation and CD51/61 expression", "setting": "[5]; 5 nM MPT0G009, transfected RAW264.7", "value": "significantly reduced"}, {"measurement": "effect of HDAC overexpression on inhibition of LPS-mediated NO or PGE2 release", "setting": "[5]; 10 μM MPT0G009 or 30 μM SAHA, HDAC1- and HDAC6-coexpressing RAW264.7 or RA-FLS", "value": "significantly reduced the inhibitory effects"}]}
